Measurements published in article PMC7145288, “New Peptide-Based Pharmacophore Activates 20S Proteasome” (Molecules, 2020).
Square brackets hold non-standard residues; d marks the D form. Peptide text beside a SMILES is read from it. Oic = O=C(O)[C@@H]1C[C@@H]2CCCC[C@@H]2N1; dOic = O=C(O)[C@H]1C[C@H]2CCCC[C@H]2N1; Tic = O=C(O)[C@@H]1Cc2ccccc2CN1

Assays:
[1] = molecular target: T1, human latent 20S core proteasome, chymotrypsin-like (ChT-L) activity (Homo sapiens, UniProt P25787+P60900); assay: ChT-L peptidase activity of latent 20S proteasome (Suc-LLVY-AMC); assay type: biochemical; conditions: for Max Activation Fold ± SE: purified latent 20S, Tris/HCl pH 8, 50 μM Suc-LLVY-AMC, 37 °C, from fitted response curves, SEM
T1 construct: Human housekeeping core (20S) proteasome purified from erythrocytes; purchased Boston Biochem, Inc. or Enzo Life Sciences, Inc; host or cells: human erythrocytes (natural source)
Protocol: The stock proteasome was diluted to 0.2 mg/mL working solution in “dilution buffer” (50 mM Tris/HCl, pH 8, 20% glycerol). […] The substrates were used at concentration of 50 μM (ChT-L) or 100 μM (T-L, PGPH). […] The total concentration of DMSO in final reaction mixtures never exceeded 3% (vol/vol). […] The reaction was carried out in 96-well plates, in 100 μL of reaction mixture that consisted of 45 mM Tris/HCl, pH 8, 100 mM KCl, 1 mM EDTA (reaction buffer) and a fluorogenic peptide substrate, to which 200 ng (nearly […]) of proteasome were added. […] The proteasome was preincubated with a substrate for 10 min at room temperature, then 1 μL of DMSO or a desired concentration of a TAT peptide in 1 μL of DMSO were added. […] To test the competition with Rpt derived peptides, the Rpt peptide (1 μM) was added before the TAT peptide to the reaction mixture. The reaction rates were calculated from a linear segment of kinetic curves constructed from measurements in 1-min intervals.
A two-tailed t-test was applied to compare the means. The comparisons were allowing for unequal variances with a Welch correction. Abundance of proteasome conformers was compared with the chi squared test and two-sample proportion test. A significance level was set at 0.05. […] Reaction rates were calculated from a smoothed linear segment of kinetic traces using OriginPro 2019. Response curves (activity vs. compound concentration) were fitted with a nonlinear fitting application of OriginPro 2019. The AC50 and maximum activation fold was calculated based on the equations implemented to fit the response curves.

[2] = tested on: proteasome ChT-L activity in SK-N-SH (ATCC HTB-11) cell lysates; assay: ChT-L proteasome activity in lysates of treated SK-N-SH cells; assay type: cell-based, human
Protocol: […] The content of live cells was determined by the Trypan Blue-exclusion assay. The cells were harvested, washed twice in PBS, resuspended in dilution buffer (see above) and stored in −80 °C. To prepare lysates the thawed preparations were vortexed with glass beads and centrifuged for 5 min 5000× g (4 °C). The supernatant was centrifuged for 20 min 14,000× g (4 °C). The resulting supernatant—“crude lysate” was diluted to 1 mg/mL of total protein with dilution buffer. 1 μg of lysate per assay (reaction buffer: 50 mM Tris/HCl pH 8, 0.1 mM MgCl2, 0.2 mM ATP, 0.1 mM dithiothreitol, 50 μM Suc-LLVY-AMC) was used for determination of ChT-L activity in a 96-well format, as above.

[3] = tested on: 20S core proteasome α face pockets; assay: Competition with Rpt C-terminal tail peptides for α face pockets (ChT-L activity); assay type: biochemical, human; conditions: Rpt peptide 1 μM added before TAT peptide; for Competition with Rpt tail peptides (in words, from radar plot scores): Rpt2 α3/α4, Rpt3 α1/α2, Rpt5 α5/α6, Rpt6 α2/α3 pocket, three to six experiments; for Enhanced (synergistic) activation with Rpt tail peptides (in words): Rpt5 or Rpt6 tails
Excerpt: As mentioned above, the binding pockets on the α face accept “anchors” from natural protein ligands of the 20S core. […] The 10-residue Rpt-derived C-terminal “tail” peptides (“Rpt peptides”) can be used as competitors with the Rpt subunits or with small allosteric ligands. Importantly, the Rpt peptides interject between the subunits with their C-termini, whereas TAT peptides, according to the modeling, use their N-termini for this purpose. To test the specificity of interactions between TAT compounds and the α face, we performed competition experiments. The 20S core was challenged with selected TAT compounds after treatment with Rpt peptides. We selected peptides of Rpt2 ([…]), Rpt3 ([…]), Rpt5 ([…]) and Rpt6 […]) subunits, docking in α3/α4, α1/α2, α5/α6 and α2/α3 pockets, respectively. Tails of Rpt2, 3, and 5 display the canonical HbYX motif, whereas the LeuTrpLys C-terminus of Rpt6 may be considered “pseudo-HbYX”, with a bulky Trp replacing Tyr. Results of the competition experiments are presented as radar plots in Figure 7. […] This pocket also emerged as the major binding site for (1) and (8). However, these compounds likely weakly competed with the Rpt2 tail for binding to the α3/α4 pocket as well. The α3/α4 pocket seemed to be favored by (6). […] These complex patterns point at the importance of allosteric effects between the α face ligands, the gate and the catalytic chamber.
Figure 7 TAT1 derivatives competed with selected C-terminal tails of Rpt (Regulatory Particle ATPases) subunits for binding to specific α face pockets. The scores presented in radar plots were calculated as ((relative activation by the [x] and Rpt tail)-(theoretical sum of activation by [x] and Rpt tail))/(theoretical sum of activation by [x] and Rpt tail), where [x] represent any TAT peptide. […] The positive scores for combinations of selected compounds with Rpt5 or Rpt6 tails indicated a presumed synergy in activation of the core. Average scores derived from three to six experiments are presented. The competition effects were statistically significant (at least p < 0.05) for Rpt3 peptide and (1) and (8), as well as for Rpt2 peptide and (6).
Human housekeeping core (20S) proteasome purified from erythrocytes was purchased from Boston Biochem, Inc. (Cambridge, MA) or from Enzo Life Sciences, Inc. (Farmingdale, NY). Multiple batches of the proteasomes were used and performed reproducibly. The stock proteasome was diluted to 0.2 mg/mL working solution in “dilution buffer” (50 mM Tris/HCl, pH 8, 20% glycerol). The following model peptide substrates, all releasing fluorescent 7-amino-4-methylcoumarin (AMC) reporter group after cleavage, were used: succinyl-LeuLeuValTyr-AMC (for the ChT-L peptidase; SucLLVY-AMC; Bachem Bioscience Inc., Philadelphia, PA), butoxycarbonyl-LeuArgArg-AMC (T-L; Bachem Bioscience Inc., Philadelphia, PA) and carbobenzoxy- LeuLeuGlu-AMC (PGPH; Enzo Life Sciences Inc., Farmingdale, NY). The substrates were used at concentration of 50 μM (ChT-L) or 100 μM (T-L, PGPH). Free AMC (Sigma-Aldrich, St. Louis, MO) was used as the standard. The C-terminal peptides derived from Rpt2, Rpt3, Rpt5 and Rpt6 were synthesized (standard solid-phase peptide chemistry) and purified to at least 98% purity by GenScript (Piscataway, NJ). The TAT peptides, Rpt peptides (except Rpt6) and the peptide substrates were dissolved in anhydrous dimethylsulfoxide (DMSO; Sigma-Aldrich, St. Louis, MO) and such stock solutions were stored at −20 °C. The total concentration of DMSO in final reaction mixtures never exceeded 3% (vol/vol). The Trp (tryptophan) -containing Rpt6 peptide was dissolved in ultrapure water and stored at −20 °C, protected from light. […]

Row | Compound | Max Activation Fold ± SE [1] | Abolition of ChT-L activity in cell lysates ([2]; 1 µM bortezomib added to lysates from control and TAT-exposed SK-N-SH cells) | Proteasome ChT-L activity in lysates of treated cells versus control lysates (in words) ([2]; SK-N-SH cells, 1 µM peptide, 24 h, 1 μg lysate, 50 μM Suc-LLVY-AMC, n = 3–4) | Competition with Rpt tail peptides (in words, from radar plot scores) [3] | Enhanced (synergistic) activation with Rpt tail peptides (in words) [3] | Ability to activate ChT-L activity of latent 20S (in words) ([1]; titration, latent human 20S, Suc-LLVY-AMC, n = 3–8)
1 | N=C(N)NCCC[C@H](NC(=O)CN)C(=O)N[C@@H](CCCCN)C(=O)N1Cc2ccccc2C[C@H]1C(=O)N1[C@H](C(=O)N[C@@H](CCCNC(=N)N)C(=O)N[C@@H](CCC(N)=O)C(=O)N[C@@H](CCCNC(=N)N)C(=O)N[C@@H](CCCNC(=N)N)C(=O)N[C@@H](CCCNC(=N)N)C(=O)N2CCC[C@H]2C(=O)N[C@@H](CO)C(=O)O)C[C@@H]2CCCC[C@@H]21 [(3)] (H-GRK[Tic][Oic]RQRRRPS-OH; N-terminus and C-terminus assumed) | 3.3 ± 0.23 fold |  |  |  |  | 
2 | CC(C)C[C@H](NC(=O)[C@H](Cc1ccccc1)NC(=O)c1cnccn1)B(O)O [bortezomib, reference compound] |  | > 85% |  |  |  | 
3 | N=C(N)NCCC[C@H](NC(=O)CN)C(=O)N[C@@H](CCCCN)C(=O)N[C@@H](CCCCN)C(=O)N[C@@H](CCCNC(=N)N)C(=O)N[C@@H](CCCNC(=N)N)C(=O)N[C@@H](CCC(N)=O)C(=O)N[C@@H](CCCNC(=N)N)C(=O)N[C@@H](CCCNC(=N)N)C(=O)N[C@@H](CCCNC(=N)N)C(=O)N1CCC[C@H]1C(=O)N[C@@H](CO)C(=O)O [(1)] |  |  | lack of significant activation | added a weakly negative score for the Rpt2 tail to the presumed major competitor Rpt3 | enhanced activation in the presence of one of Rpt tails, namely Rpt5 or Rpt6 | 
4 | N=C(N)NCCC[C@H](NC(=O)CN)C(=O)N[C@@H](CCCCN)C(=O)N1Cc2ccccc2C[C@H]1C(=O)N1[C@H](C(=O)N[C@@H](CCCNC(=N)N)C(=O)N[C@@H](CCC(N)=O)C(=O)N2Cc3ccccc3C[C@H]2C(=O)N2[C@@H](C(=O)N[C@@H](CCCNC(=N)N)C(=O)N3CCC[C@H]3C(=O)N[C@@H](CO)C(=O)O)C[C@H]3CCCC[C@H]32)C[C@@H]2CCCC[C@@H]21 [(2)] (H-GRK[Tic][Oic]RQ[Tic][dOic]RPS-OH; N-terminus and C-terminus assumed) | 1.5 ± 0.26 fold |  |  | competing with Rpt2, Rpt3, and Rpt5 tails | synergy was especially pronounced for the Rpt6-(2) pair | very poor activator
5 | NCCCC[C@H](NC(=O)[C@H](CCCCN)NC(=O)[C@H](CCCCN)NC(=O)[C@@H]1C[C@@H]2CCCC[C@@H]2N1C(=O)[C@@H]1Cc2ccccc2CN1C(=O)[C@H](CCCCN)NC(=O)[C@H](CCCCN)NC(=O)[C@@H](N)CCCCN)C(=O)O [(6)] |  |  |  | Rpt2 tail was a major competitor | enhanced activation in the presence of one of Rpt tails, namely Rpt5 or Rpt6 | 
